This is an account of results in patent US12208227B2, “Precision bio-chemotronic system” (THE REGENTS OF THE UNIVERSITY OF MICHIGAN, priority 2017, dated 2025).

Data set [1] is described as follows: Dissolution of printed films versus original loose powders. In kind it is physicochemical.
Text: (§2) Drug dissolution was monitored by in-situ UV-VIS Ocean Optics USB+2000 spectrometer with T300-UV-VIS transmission dip probe, with a 10 mm optical path.
(§3) For dissolution from film, the glass substrate with printed film was attached to rotating rod with substrate holder. In case of compressed powder pellet, 1.57 mm diameter pellet was compressed at 50±2 psi for approximately 10 seconds into a holder having same size as disk substrate holder. […] In all cases the same vessel and solution volume of 10 ml was used. Testing temperature was room temperature−20±1° C. Sink conditions were defined as C<5Cs.
As-received API powders having the same weight as the films were introduced into 10 ml solutions without any prior treatment, and stirred using a rotation rod with the same shape and diameter as the one used for film dissolution.
The nature of data set [2]: Intrinsic dissolution rate, rotating disk dissolution apparatus. In kind it is physicochemical. The note with it: films comparable to compressed pellets, 100 rpm, 10 ml, 20±1° C.
Text: as §2
Dissolution Rate Measurement
as §3
To measure dissolution kinetics, a rotating disk dissolution apparatus (see FIG. 30 for details) was used with rotational speed of 100 rpm. Concentration was monitored using a UV-VIS spectrometer equipped with a dip probe. The compounds were tested both in powder form (compressed into pellets for rotating disk dissolution) and in film form. […]
[formula] where m is the dissolved solute mass, and (dm/dt)max is the maximum slope in the dissolution curve that plots the amount of dissolved material versus time, typically evaluated at the start of dissolution process, where the concentration driving force is highest. […]
The nature of the next data set: physchem. The note with it: 20 °C, pH 1.2, simulated gastric fluid, thermodynamic from solid.
Data set [3] deals with MCF7 cells (breast carcinoma). The data set can be described thus: Cancer cell growth/viability, live cell counts by trypan blue exclusion. Type of data set: cell-based. As for the experimental part: (§1) The cells were plated onto 12-well tissue culture dishes, and allowed to adhere and grow for 24 hours in 2.5 ml of 10% fetal bovine serum-supplemented growth medium. […] Slides were removed following this initial period, and live cell counts were determined using trypan blue exclusion using a hemocytometer at 1, 4, 8, 12, 24 and 48 hours following film treatment. At least 3 samples were tested at each time point.

Data set [4] has as its system OVCAR3 cells (ovarian carcinoma). Described as above. Type of data set: cell-based. Here is the method:
as §1

Setting [5] is: film form, nominal 5 μM (4.5 μg per film).
Where [6] appears, read: powder form in growth medium, nominal 5 μM.

The structures appear in SMILES notation. In brackets after ≈: the same amount, converted by molar mass.

Experimental for physchem: Solubility tests were performed at ambient temperature (20±1° C.). Solutions with excess concentration (at least 100 μg/ml of solid) were shaken at approximately 1,000 rpm for 48 hours, followed by solution filtration with 0.4 μm filter after 24 hrs. Filtered solutions concentrations were then measured using UV-VIS spectrometry, calibrated with known solutions concentrations. Five different concentrations for calibration were used in each test.
Solution volume remained constant in all experiments, 10 ml, and temperature was 20±1° C.

With `Cn1c(=O)c2c(ncn2C)n(C)c1=O` [Caffeine], the “dissolution in the film form (qualitative)” value in data set [1] (film form) is reported as “instantaneous dissolution”.
The term solubility denotes the concentration that dissolves in the medium under given conditions. A higher solubility goes with much dissolved substance. As to `CC(C)Cc1ccc(C(C)C(=O)O)cc1` (stereo not drawn) [ibuprofen], the “intrinsic dissolution rate (IDR)” value in data set [2] (aqueous HCl buffer pH 1.2) is 1·10^−3±3·10^−4 μg sec^−1 mm^−2. Besides, in data set [1] (aqueous HCl buffer pH 1.2, 70 μg weight, 10 ml), the “enhancement of initial dissolution rate, film-form versus loose powder” value is listed as “thirty-fold”. Besides, in “physchem”, the concentration in solution (solubility at 48 h) came to 22.5 ± 0.5 µg/mL (≈ 109 µM).
In the case of `CC/C(=C(\c1ccccc1)c1ccc(OCCN(C)C)cc1)c1ccccc1` [tamoxifen], in data set [2] (aqueous acetate buffer pH 4.9), the “intrinsic dissolution rate (IDR)” value is recorded as 6.10^−4±1·10^−4 μg sec^−1 mm^−2. Also, the “cancer cells' viability after 48 hours” value in data set [3] (setting [5]) came to 58%; in data set [3] (setting [6]) it was 79%; in data set [4] (setting [5]), 44%; in data set [4] (setting [6]), 68%.
